Experiment [1] concerns the target T1, human melanopsin (Homo sapiens, UniProt Q9UHM6).
T1 sequence (Q9UHM6 1-384 limits assumed): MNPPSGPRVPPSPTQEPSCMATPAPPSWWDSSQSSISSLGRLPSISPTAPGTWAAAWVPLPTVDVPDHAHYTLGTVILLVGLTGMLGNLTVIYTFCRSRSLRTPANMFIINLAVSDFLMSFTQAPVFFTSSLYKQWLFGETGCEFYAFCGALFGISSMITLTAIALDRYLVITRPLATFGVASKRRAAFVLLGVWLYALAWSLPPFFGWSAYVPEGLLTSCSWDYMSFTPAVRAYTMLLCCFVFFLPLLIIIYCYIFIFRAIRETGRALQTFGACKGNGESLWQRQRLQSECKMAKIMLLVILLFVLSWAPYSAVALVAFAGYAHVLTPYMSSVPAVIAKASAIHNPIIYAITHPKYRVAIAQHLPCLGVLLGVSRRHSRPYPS
The experiment is described as follows: GsX GloSensor assay with Gsα/i11. It is filed as cell-based. On the set-up: the C-terminal amino acid residues (94, 140, 200, 214, 296, and 308 residues); expressed in transfected cells; host or cells: COS-1. The conditions noted are these: 16.7 μM AA92593; COS-1 cells. The text has this:
Previous studies of human and mouse melanopsins reported that these melanopsins can activate not only Gq but Gs and Gi ([20], [21], [22]). Thus, we assessed the effect of AA92593 on Gsα WT or Gsα/i11 (with 11 C-terminal sequence of Giα) using the GsX GloSensor assay. In agreement with the promiscuous G protein-coupling of melanopsins, we observed light-dependent increase of GloSensor luminescence in COS-1 cells expressing Gsα or Gsα/i11 with human/mouse melanopsins (Fig. 1, G–J).
For GloSensor assay, opsins, GloSensor assay sensor (coded by pGlo-22F), and NanoBiT-tagged G proteins were transiently expressed in COS-1 cells (kindly provided from Dr David Farrens, Oregon Health and Science University) using PEI as described previously ([24], [52]). […] For GFP-fluorescence microscopy, a 35-mm cell culture dish (IWAKI) was transfected with 2 μg melanopsin-GFP plasmid and 8 μg PEI in 400 μl Opti-mem and 1.2 ml D-MEM. […]
The transfected COS-1 cells were incubated at 37 °C, 5% CO2 for 2 days, and the medium was aspirated and exchanged with 50 μl of HBSS (145 mM NaCl, 10 mM D-glucose, 5 mM KCl, 1 mM MgCl2, 1.7 mM CaCl2, 1.5 mM NaHCO3, 10 mM Hepes, pH 7.4), containing 33.3, 20, 10, 2, 0.2, 0.02, 0.002, or 0 μM AA92593, 0.5% dimetyl sulfoxide (DMSO), and 4% (vol/vol) GloSensor cAMP reagent stock solution. […] Luminescence was measured using GM-2000 or GM-3510 microplate reader (Promega). […]

Experiment [2] concerns the target T1, human melanopsin. Kind of experiment: GloSensor cAMP assay via endogenous G proteins. It is filed as cell-based. On the set-up: the C-terminal amino acid residues (94, 140, 200, 214, 296, and 308 residues); expressed in transfected cells; host or cells: COS-1. As to conditions: COS-1 cells, no exogenous G protein. For orientation: Cyclic AMP is a second messenger, typically raised through Gs and lowered through Gi signalling.

Consider `COc1ccc(S(=O)(=O)N2CCCCC2)cc1C` [AA92593], for which, in experiment [1], the “effect on melanopsin-induced cAMP responses via Gsα/i11” value is “can suppress”. In experiment [2], the “effect on endogenous G protein-induced cAMP responses” value was “inhibited”.

The record behind these values is PMC12051620, “Molecular basis underlying the specificity of an antagonist AA92593 for mammalian melanopsins” (The Journal of Biological Chemistry, 2025).
